“And” between values parts separate entries of the source, which are not always exact repeats. Equal values may be shown once. Read-outs that look alike come from different tables or passages of the source. Marks after values point to notes of the source that are not given here.
Legend:
[1] = test system: differentiated Caco-2 cells; assay: WST-1 cytotoxicity assay, viability of differentiated Caco-2 cells after 2 h exposure; assay type: cell-based, Human; details: for concentration that did not significantly affect cell viability: for the mixture: concentration of each AGE
Protocol: (§1) Human colon carcinoma cells (Caco-2 cells) were obtained from the American Type Culture Collection (ATCC, Rockville, MD, USA). Caco-2 cells were cultured in complete culture medium, composed of DMEM GlutaMAX with 10% FBS (v/v), 1% P/S (v/v), and 1% NEAA (v/v) at 37 °C in a 5% (v/v) CO2 incubator. In this study, Caco-2 cells within passages 10–15 were utilized.
The WST-1 assay was used to quantify the viability of differentiated Caco-2 cells upon exposure to the individual AGEs and their equimolar mixture. To this end, Caco-2 cells were seeded in 96-well plates at 3 × 10^4 cells/well (100 μL) and incubated at 37 °C under 5% (v/v) CO2 for 20 days. The complete culture medium was refreshed on each alternate day. After full differentiation, the culture medium was removed, and the cells were washed with HBSS (containing 1% (v/v) HEPES) twice on the testing day. The same volume (100 μL) of HBSS containing a series of concentrations of the different individual test compounds or of a mixture containing all 10 AGEs was added from a 20-times-concentrated stock solution in HBSS. The test concentrations were designed based on the estimated daily intake of total AGEs (0.55–0.66 mg/(kg·day)) and high-exposure scenarios (1.4–1.8 mg/(kg day)). […] After exposure for 2 h, the absorbance at 440 and 620 nm was measured in a plate spectrophotometer (Molecular Devices, San Jose, CA, USA, Spectra Max M2). After measurement, the cell viability was calculated as cell viability (%)=(Atested 440 nm−Atested 620 nm)/(Acontrol 440 nm−Acontrol 620 nm)×100

[2] = test system: Caco-2 cell monolayer; assay: Accumulation of AGEs in the Caco-2 cell monolayer after transport experiment; assay type: in vitro ADME, Human; details: 2 h; for percentage of the amount added at the apical side at t = 0: accumulation / percentage of the amount added at the apical side at t = 0: accumulation (intracellular): mixture, each AGE 100 μmol/L
Protocol: After the transport experiment, the cell monolayer on the inset membrane was washed three times with HBSS and three times with PBS. […] The samples were subsequently centrifuged at 16 000g for 20 min at 4 °C, and the supernatant was collected for further analysis by LC-MS.
The analytical column was maintained at 40 °C throughout the quantification process. A multistep binary gradient system of water containing 0.1% (v/v) formic acid (solvent A) and acetonitrile containing 0.1% (v/v) formic acid (solvent B) was used. In the whole gradient program, the total proportion of solvents A and B is always equal to 100%. […] The initial flow rate was set to 0.30 mL/min. Subsequently, it was reduced to 0.25 mL/min at 0.3 min, which was kept until 10 min. Afterward, there was a gradual decrease, reaching 0.15 mL/min at 11 min, and this rate was maintained until 12 min. […] Between 1 and 11 min of gradient running, the line was set to MS, and for the other time periods, the line was set to waste. The retention time and mass spectrometry parameters of individual AGEs are listed in Table S1 and the chromatograms of the samples are shown in Figure S1.

[3] = test system: Caco-2 cell layer; assay: Transport of AGE mixture across Caco-2 cell layer (transwell, apical to basolateral); assay type: in vitro ADME, Human; details: for percentage of the amount added at the apical side at t = 0: apical side / percentage of the amount added at the apical side at t = 0: basolateral side / percentage of the amount added at the apical side at t = 0: apical side (nontransported) / percentage of the amount added at the apical side at t = 0: basolateral side (transported): mixture, each AGE 100 μmol/L, 2 h; for percentage of the amount added at the apical side at t = 0: apical side (nontransported) / percentage of the amount added at the apical side at t = 0: basolateral side (transported): standard treatment; for effect of 4 °C on transport compared to 37 °C: 4 °C versus 37 °C
Protocol: as §1
(§2) Caco-2 cells were cultured until reaching 50%–60% confluence (undifferentiated Caco-2 cells), followed by trypsinization. Then, cells were seeded at 3 × 10^4 cells per insert in 100 μL of complete culture medium into the transwell inserts of a 24-well transwell plate, and 600 μL of complete culture medium was added to the basolateral compartments. In both the apical and basolateral compartments, the medium was renewed every other day. After 2 weeks, the transepithelial electrical resistance (TEER) value was measured using a Millicell ERS-2 Electrical Resistance System (Burlington, MA, USA) every other day. Only wells with a TEER value of >400 Ω/cm^2 were used for transport experiments. Moreover, the TEER value was measured before and after the transport experiment to ascertain that the Caco-2 cell layer remained intact during the whole transport experiment.
(§3) Transport experiments were performed after 20 days of differentiation of the Caco-2 cells. The culture medium was replaced with HBSS (containing 1% (v/v) HEPES) 30 min prior to testing in both the apical and basolateral compartments. After the 30 min preincubation, 100 μL of HBSS containing a mixture of the 10 different AGEs including CML, CEL, GALA, argpyrimidine, MG-H1, GOLD, GOLA, MOLD, pentosidine, and pyrraline, each at 100 μmol/L, was added to the apical compartment after removing the preincubation medium, while the basolateral medium was replaced by 600 μL of HBSS. […] At 120 min, a 10 μL sample from the apical side was taken for calculating apical side retention (nontransported percentage).
(§4) The apparent permeability coefficient (Papp) value was calculated according to the methodology described by Yee.
(§5) AGEs were quantified by LC-MS using a Shimadzu Nexera XR LC-40D XR UPLC system (Kyoto, Japan) equipped with a UPLC Amide column (100 mm × 2.1 mm, 1.7 μm) without derivatization coupled with a Shimadzu LCMS-8045 triple quadrupole mass spectrometer (Kyoto, Japan). The analytical column was maintained at 40 °C throughout the quantification process. A multistep binary gradient system of water containing 0.1% (v/v) formic acid (solvent A) and acetonitrile containing 0.1% (v/v) formic acid (solvent B) was used. In the whole gradient program, the total proportion of solvents A and B is always equal to 100%. The gradient program was designed as follows: 75% solvent B to 12.5% solvent B from 0 to 10 min, followed by 12.5% solvent B from 10 to 11 min. […] The initial flow rate was set to 0.30 mL/min. Subsequently, it was reduced to 0.25 mL/min at 0.3 min, which was kept until 10 min. Afterward, there was a gradual decrease, reaching 0.15 mL/min at 11 min, and this rate was maintained until 12 min. […] Between 1 and 11 min of gradient running, the line was set to MS, and for the other time periods, the line was set to waste. The retention time and mass spectrometry parameters of individual AGEs are listed in Table S1 and the chromatograms of the samples are shown in Figure S1.

[4] = test system: PepT1; assay: as above; assay type: in vitro ADME, Human; details: human, mixture, each AGE 100 μmol/L; for recovery at 2 h, 100 μmol/L: Caco-2, with Gly-Sar 10 mmol/L (apical compartment), Gly-Sar 10 mmol/L, read-out: percentage of the amount added at the apical side at t = 0: recovery; for Papp at 120 min, 100 μmol/L: Caco-2, with Gly-Sar 10 mmol/L (apical), 10 mmol/L Gly-Sar apical (PepT1 inhibition), data from 120 min
Protocol: as §1, §2, §3, §4, §5

[5] = as above; assay type: in vitro ADME, Human; details: human; for recovery at 2 h, 100 μmol/L: read-out: percentage of the amount added at the apical side at t = 0: recovery; for Papp at 120 min, 100 μmol/L: data from 120 min
Protocol: as §1, §2, §3, §4, §5

[6] = Caco-2, 4 °C, mixture, each AGE 100 μmol/L
[7] = Caco-2, cytochalasin D pretreatment, mixture, each AGE 100 μmol/L
[8] = Caco-2, standard treatment (37 °C), equimolar mixture of 10 AGEs, each 100 μmol/L apical
[9] = Caco-2, standard treatment, mixture, each AGE 100 μmol/L
[10] = Caco-2, cytochalasin D 1 μg/mL, 30 min apical preincubation, mixture, each AGE 100 μmol/L

Structure (SMILES) | concentration that did not significantly affect cell viability [1] [µM] | percentage of the amount added at the apical side at t = 0: accumulation ([2]; 4 °C) | percentage of the amount added at the apical side at t = 0: accumulation ([2]; Gly-Sar 10 mmol/L) | percentage of the amount added at the apical side at t = 0: accumulation ([2]; cytochalasin D pretreatment) | percentage of the amount added at the apical side at t = 0: accumulation (intracellular) ([2]; standard treatment) | percentage of the amount added at the apical side at t = 0: apical side ([3]; 4 °C) | percentage of the amount added at the apical side at t = 0: basolateral side ([3]; 4 °C) | percentage of the amount added at the apical side at t = 0: basolateral side ([3]; Gly-Sar 10 mmol/L) | percentage of the amount added at the apical side at t = 0: apical side ([3]; cytochalasin D pretreatment) | percentage of the amount added at the apical side at t = 0: basolateral side ([3]; cytochalasin D pretreatment) | percentage of the amount added at the apical side at t = 0: apical side (nontransported) [3] | percentage of the amount added at the apical side at t = 0: basolateral side (transported) [3] | recovery at 2 h, 100 μmol/L [4] [%] | Papp at 120 min, 100 μmol/L [4] [nm/s] | recovery at 2 h, 100 μmol/L [5, 6] [%] | Papp at 120 min, 100 μmol/L [5, 6] [nm/s] | recovery at 2 h, 100 μmol/L [5, 7] [%] | Papp at 120 min, 100 μmol/L [5, 8] [nm/s] | recovery at 2 h, 100 μmol/L [5, 9] [%] | Papp at 120 min, 100 μmol/L [5, 10] [nm/s] | also measured
CC(NCCCC[C@H](N)C(=O)O)C(=O)O (some centres unmarked) [CEL, N-ε-(carboxyethyl)-lysine] | ≤ 1500 | 0.0 ± 0.0 ^b % | 1.3 ± 0.2 ^a % | 1.2 ± 0.2 ^a % | 1.1 ± 0.2 ^a % | 88.8 ± 9.1 ^a % | 0.3 ± 0.1 ^a % | 0.4 ± 0.1 ^a % | 93.1 ± 4.7 ^a % | 1.2 ± 0.6 ^b % | 95.0 ± 7.00 ^a % | 0.4 ± 0.2 ^a % | 89.5 ± 4.8 | 1.49 | 89.1 ± 9.1 | 1.05 | 95.5 ± 5.1 | 1.64 | 96.5 ± 7.2 | 5.07 | intracellular accumulation relative to CML ([2]; standard treatment): about half that observed of CML
N[C@@H](CCCCNC(=O)CO)C(=O)O [GALA, glycolic acid–lysine–amide] | ≤ 1500 | 0.0 ± 0.0 ^b % | 0.2 ± 0.1 ^a % | 0.2 ± 0.1 ^a % | 0.2 ± 0.1 ^a % | 89.1 ± 4.5 ^a % | 0.2 ± 0.1 ^c % | 0.8 ± 0.2 ^b % | 87.4 ± 4.3 ^a % | 2.1 ± 0.8 ^a % | 85.0 ± 7.1 ^a % | 1.1% and 1.06% and 1.1 ± 0.3 ^b % | 85.4 ± 3.6 | 3.21 | 89.3 ± 4.5 | 0.95 | 89.7 ± 4.6 | 4.48 | 86.2 ± 7.1 | 8.7 | effect of 4 °C on transport compared to 37 °C [3]: significantly reduced; reduction of the Papp value in the presence of Gly-Sar ([3]; Gly-Sar 10 mmol/L versus standard): 28%; percentage of the amount added at the apical side at t = 0: apical side ([3]; Gly-Sar 10 mmol/L): 84.4 ± 3.6 ^a %
N[C@@H](CCCCn1cc[n+](CCCC[C@H](N)C(=O)O)c1)C(=O)O [GOLD, glyoxal-derived lysine dimer] | – | 0.0 ± 0.0 ^c % | 0.1 ± 0.0 ^a % | 0.0 ± 0.0 ^ab % | – | 89.6 ± 13.2 ^b % | 0.1 ± 0.1 ^b % | 0.2 ± 0.1 ^b % | 101.2 ± 9.4 ^a % | 0.8 ± 0.3 ^a % | 94.6 ± 8.1 ^ab % | 0.3 ± 0.2 ^b % | 94.1 ± 8 | 1 | 89.8 ± 13.2 | 0.69 | 102 ± 9.5 | 1.34 | 95 ± 8.2 | 3.2 | effect on cell viability [1]: did not affect cell viability up to the highest concentration tested; effect of 4 °C on transport compared to 37 °C [3]: significantly reduced; percentage of the amount added at the apical side at t = 0: apical side ([3]; Gly-Sar 10 mmol/L): 93.7 ± 7.9 ^ab %
CC1NC(NCCC[C@H](N)C(=O)O)=NC1=O (some centres unmarked) [MG-H1, methylglyoxal–hydroimidazolone] | ≤ 750 | 0.0 ± 0.0 ^b % | 0.3 ± 0.1 ^b % | 0.3 ± 0.1 ^b % | 0.3 ± 0.1 ^a % | 89.7 ± 5.5 ^a % | 0.3 ± 0.1 ^b % | 0.4 ± 0.2 ^b % | 93.0 ± 4.5 ^a % | 1.2 ± 0.6 ^a % | 93.4 ± 3.6 ^a % | 0.4 ± 0.2 ^b % | 90.8 ± 5.9 | 1.68 | 89.7 ± 5.4 | 1.07 | 94.6 ± 4.2 | 1.82 | 94.1 ± 3.6 | 5.26 | percentage of the amount added at the apical side at t = 0: apical side ([3]; Gly-Sar 10 mmol/L): 90.1 ± 5.8 ^a %
